“Also recorded” adds a separate entry of the source.

For data set [1], the system named is Sirt1 knockout mice. In words: Partial hepatectomy in Sirt1 knockout mice and littermate controls, with NR. It is filed as in vivo, mouse. How it is done: Partial hepatectomy: 10-14 week old male transgenic mice underwent partial hepatectomy (PHx) according to the protocol of Mitchell and Willenbring between 8 AM and noon. Briefly, after isofluorane anesthesia, a ventral midline incision was made. Then the median and left lateral lobes, comprising 70% of the liver, were resected by pedicle ligation. For EdU (5-ethynyl-2′-deoxyuridine) labeling (Molecular probes), mice were injected intraperitoneally with the labeling reagent at a dose of 16 mg/kg, 5 h before sacrifice. Animals were sacrificed at 36 h or 48 h after PHx, as indicated. The resected and regenerating livers were snap frozen in liquid nitrogen, fixed in 4% paraformaldehyde, embedded in OCT medium (Tissue-TEK O.C.T compound, Sakura), or rapidly frozen in pre-chilled metal clamps in liquid nitrogen for NAD and ATP assays. All surgical procedures involving mice were approved by the Institutional Animal Care and Use Committee protocols of the University of Pennsylvania. Histology, Immunohistochemistry, and Immunofluoresence: Mitotic figures were counted in Hematoxylin and eosin stained slides. Paraffin embedded liver sections of 5 μm thickness were deparaffinized in Xylene followed by rehydration through a graded ethanol series were stained with Gill 3 hematoxylin (Thermo Scientific) and eosin (Sigma). Mitotically active areas were first screened under lower magnification. For quantification, total mitotic counts in 10 high power fields (40×) in the most mitotically active areas were considered. Representative photomicrographs were taken at 400× magnification using a light microscope coupled with a digital image acquisition system. For immunofluorescent detection of Nampt expression in paraffin sections, antigens were retrieved in R-buffer (Electron Microscopy Sciences Ct #62706-10) followed by quenching and blocking in Cas-Block (Invitrogen 00-8120) for 20 min. Slides were then incubated overnight at 4° C. in humidified chamber with primary rabbit polyclonal anti-NAMPT antibody (Bethyl Laboratories, dilution 1:1000). Goat anti-rabbit IgG (Alexa Fluor 488) was used as secondary antibody at dilution of 1:600 and slides were counter-stained with DAPI (Vector laboratories). For quantification, cells were examined and imaged using a Zeiss Axioplan 2 imaging system under a 20× objective taking both the central and portal venous areas. Studies were performed to determine the ability of NR to improve liver regeneration in the context of Sirt1 deletion, which impairs this process. Sirt1 knockouts and littermate controls were treated with NR (500 mgs/Kg/day) for 2 weeks prior to partial hepatectomy (PHx). […] In another assay, liver regeneration during the first 36 hour post PHx was compromised in Sirt1 knockout mice and restored by NR treatment. […]

For data set [2], the system named is hepatocyte-specific Nampt deficient mice. Nature of the data set: Partial hepatectomy in hepatocyte-specific Nampt deficient mice (AAV-Cre) and AAV-Gfp littermate controls, with NR. It is filed as in vivo, mouse. The following applies: for Liver regeneration (EdU positive hepatocytes, liver to body weight ratio): first 48 hours after PHx, NR ~500 mg/kg/day. An excerpt:
(§1) Animals, housing and drug treatment: Mice overexpressing Nampt in hepatocytes were obtained by crossing animals carrying an exogenous copy of the Nampt cDNA separated from the CAGGS promoter by a foxed stop cassette that were backcrossed to the C57BL/6J background (as described previously^7), with mice carrying Albumin-Cre (JAX strain B6.Cg-Tg(Alb-cre)21Mgn/J, stock number 003574). Littermates lacking Albumin Cre were used as controls. For studies on the adult onset of Nampt overexpression, 8-9 week old male Nampt^fl/fl and Nampt^wt/wt mice were injected with adeno-associated virus in the retroorbital plexus expressing either Cre recombinase (AAV-Cre) or enhanced green fluorescent protein (AAV-Gfp) under the control of thyroxine-binding globulin (Tbg) promoter (AAV-Cre). Nampt^fl/fl mice injected with AAV-Gfp and Namp^wt/wt injected with AAV-Cre served as controls. For inducible deletion of Nampt, mice originally created by Oberdan Leo at Université de Liège and backcrossed to the C57/BL6 background were employed and generously provided by Shin-Ichiro Imai at Washington University. As above, 8-9 week old male mice bearing two floxed alleles were injected retroorbitally with adeno-associated virus expressing either Cre recombinase (AAV-Cre) or enhanced green fluorescent protein (AAV-Gfp) under the control of thyroxine-binding globulin (Tbg) promoter. Fasting blood glucose was measured and partial hepatectomies were performed at >14 days after AAV infection in both the adult onset overexpression and liver-specific knock out cohorts. Animals were housed in groups of 4-5 mice/cage in pathogen-free barrier facility in a 12 h light-dark cycle with free access to food and water. For experiments containing only wild type animals, male C57BL/6J mice were ordered directly from Jackson Labs. For nicotinamide riboside (NR) (Chromadex Inc.) supplementation experiments, NR was dissolved in the drinking water at 3.0 mg/ml in light-protected bottles and was changed every 3 days. For fasting and re-feeding experiments, animals were fasted for 16 h with access to water ad libitum in cages containing Alpha-dri bedding. All animal work was performed in accordance with the U.S. Department of Health and Human Services Guide for the Care and Use of Laboratory Animals and with the approval of the University of Pennsylvania Institutional Animal Care and Use Committee.
(§2) Partial hepatectomy: 10-14 week old male transgenic mice underwent partial hepatectomy (PHx) according to the protocol of Mitchell and Willenbring between 8 AM and noon. Briefly, after isofluorane anesthesia, a ventral midline incision was made. Then the median and left lateral lobes, comprising 70% of the liver, were resected by pedicle ligation. For EdU (5-ethynyl-2′-deoxyuridine) labeling (Molecular probes), mice were injected intraperitoneally with the labeling reagent at a dose of 16 mg/kg, 5 h before sacrifice. Animals were sacrificed at 36 h or 48 h after PHx, as indicated. The resected and regenerating livers were snap frozen in liquid nitrogen, fixed in 4% paraformaldehyde, embedded in OCT medium (Tissue-TEK O.C.T compound, Sakura), or rapidly frozen in pre-chilled metal clamps in liquid nitrogen for NAD and ATP assays. All surgical procedures involving mice were approved by the Institutional Animal Care and Use Committee protocols of the University of Pennsylvania.
(§3) Histology, Immunohistochemistry, and Immunofluoresence: Mitotic figures were counted in Hematoxylin and eosin stained slides. Paraffin embedded liver sections of 5 μm thickness were deparaffinized in Xylene followed by rehydration through a graded ethanol series were stained with Gill 3 hematoxylin (Thermo Scientific) and eosin (Sigma). Mitotically active areas were first screened under lower magnification. For quantification, total mitotic counts in 10 high power fields (40×) in the most mitotically active areas were considered. […]

Data set [3] concerns wild-type C57BL/6J mice. Nature of the data set: 2/3 partial hepatectomy (PHx) liver regeneration model, NR in the drinking water. Type of data set: in vivo, mouse.
Description: as §1, §2, §3

The test system of data set [4] is hepatocyte. The following applies: cited from earlier work.
[5] abbreviates: Sirt1 deficient mice, NR 500 mgs/Kg/day for 2 weeks prior to PHx.
The mark [6] stands for this setting: NR ~500 mg/kg, 48 hours post PHx.

On to `NC(=O)c1ccc[n+]([C@@H]2O[C@H](CO)[C@@H](O)[C@H]2O)c1` [NR, nicotinamide riboside], for which, in data set [1] (setting [5]), the “Acute hepatic steatosis phenotype (H&E sections)” value was “partially rescued” and the Hepatic fatty changes result is “attenuated”. Also, the “Liver regeneration during the first 36 hour post PHx” value in data set [1] (Sirt1 knockout mice) is on record as “restored”. Also, the “Size of the regenerated livers compared to untreated livers” value in data set [1] (both wild type and Sirt1 knockout mice, 36 hour post PHx) is recorded as “increase”. In data set [2] (Nampt KO mice, 48 hours after PHx), the Mitotic index entry was “largely restored”. In addition, in data set [2] (Nampt KO mice), the “Liver regeneration (EdU positive hepatocytes, liver to body weight ratio)” value is “restored”. Besides, the “Liver regeneration (EdU positive hepatocytes, liver to body weight ratio)” value in data set [2] (Nampt KO mice, listed as nicotinamide riboside) was “completely rescued”. Besides, in data set [2] (Nampt fl/fl AAV-Cre mice, 48 hours after PHx), the “Reduction of hepatic triglycerides with NR treatment” value is about 35%. Moreover, the “Petechial hemorrhage / pale regenerated livers (macroscopic)” value in data set [2] (Nampt fl/fl AAV-Cre mice, NR ~500 mg/kg/day 2 weeks prior to PHx, 48 hours) is on record as “prevented”. The “Hepatic fatty changes in NAMPT deficient regenerating livers (histology)” value in data set [2] (Nampt fl/fl AAV-Cre, 48 hours after PHx) is recorded as “nearly normalized”. Further, in data set [2] (Nampt fl/fl AAV-Gfp mice, 48 hours after PHx), the “Reduction of hepatic triglycerides with NR treatment” value was 75%. Also, the “Liver NAD content” value in data set [2] (both genotypes (AAV-Gfp and AAV-Cre), before and after PHx) is on record as “effectively increased”. Further, the “Hepatic lipid accumulation in regenerating wild type livers (histology)” value in data set [2] (wild type (AAV-Gfp control) livers, 48 hours after PHx) is “abolished”. Besides, the “Increase of liver NAD content, pre hepatectomy” value in data set [3] (NR 3 mg/mL in drinking water (~500 mg/kg) for 14 days, pre PHx, vs control mice) is reported as about 35%. In addition, the “Increase of liver NAD content, post hepatectomy” value in data set [3] (NR 3 mg/mL in drinking water (~500 mg/kg) from 14 days before PHx, 48 hours post PHx, vs control mice) is about 58%. Further, the “Liver ATP levels” value in data set [3] (NR treated mice, pre or post hepatectomy, regenerating livers) is reported as “enhanced”. In data set [3] (setting [6]), the “Fatty changes (hepatic steatosis, micro and macro vesicular lipid droplets, hepatic triglyceride accumulation)” value was “almost completely absent; also recorded: not evident”; the “Hepatocyte proliferation (incorporation of EdU into DNA)” value was “greatly enhanced”; the “Liver mass (liver to body weight ratio) after PHx” value is listed as “significant improvement”. The “Macroscopic appearance of regenerating livers” value in data set [3] (NR ~500 mg/kg, 48 hours post PHx, control livers pale, mottled) is given as “more uniformly colored”. Also, in data set [3] (NR ~500 mg/kg, 48 hours post PHx, vs control), the “Increase in mitotic activity (mitotic figures, H&E stained sections)” value came out at 48%. The “Hepatic steatosis at 36 hours post-PHx” value in data set [3] (NR-treated mice, 36 hours post-PHx) is “Some steatosis was visible”.

`Oc1ccc(/C=C/c2cc(O)cc(O)c2)cc1` [resveratrol]: in data set [4], the Hepatocyte replication entry is recorded as “slow” and the “Hepatocyte survival in injury models” value is “improve”.

The values are drawn from patent publication US11559522B2, “Methods for enhancing liver regeneration” (The Trustees of the University of Pennsylvania, priority 2016, dated 2023).
